Measurements taken from patent publication US6653354B2, “NMDA antagonist comprising xenon” (priority 1999, dated 2003).
“Also recorded” adds a separate entry of the source.

Tests used:
[1] = tested on: glutamatergic synapses (NMDA receptor slow component, AMPA/KA receptor fast component) of hippocampal neurons; test: Excitatory (glutamatergic) postsynaptic currents, voltage-clamped autaptic hippocampal neurons; assay type: cell-based, rat
Experimental: Hippocampal neurons were grown in culture using methods described previously (Segal M M et al, J. Neurophysiol. 1990, 64:1390-1399; Bekkers J M et al, Proc. Natl. Acad. Sci. U.S.A. 1991, 88:7834-7838; Mennerick S et al, J. Neurophysiol. 1995, 73:320-332). Briefly, hippocampi from Sprague Dawley rats (postnatal day 1-3) were dissected, roughly sliced and agitated in a papain-containing solution (20 units ml^−1) for 30 minutes at 37 EC. After washing with enzyme-free solution, the tissue was gently triturated with a fire-polished Pasteur pipette and the cells were plated out at a density of 8-10×10^4 cells ml^−1 and cultured (95% air/5% CO2) at 37° C. Glass coverslips used for culturing the cells were first coated with agarose (0.15% w/v) and then sprayed with a fine mist of poly-D-lysine (PDL) and collagen (0.1 mg ml^−1 PDL and 0.5 mg ml^−1 rat-tail collagen) from a glass micro-atomiser and sterilized by UV exposure. This produced micro-islands of permissive substrate with diameters of between 100 and 1000 μm. At 3-4 days after plating, when the glial cell layer was about 80% confluent, an anti-mitotic agent (cytosine β-D-arabinofuranoside, 5 μM) was added to arrest glial cell proliferation. Neuronal cultures were then allowed to mature for another 4-9 days. We used micro-islands which contained single isolated neurons whose axonal processes and dendritic trees formed multiple self-synapses (autapses). This procedure provided a large population of phenotypically identical monosynaptic connections.
The neurons were voltage-clamped using the whole-cell recording technique (Axopatch 200 amplifier, Axon Instruments, Foster City, Calif.). Electrodes were fabricated from borosilicate glass and typically had resistances of between 3-5 MΩ. Series resistance was compensated by 75-90%. Neurons were voltage-clamped at −60 mV, and synaptic responses were stimulated by a 2 ms depolarising pulse to +20 mV. […] For the synaptic measurements, data were sampled at 50 kHz, filtered at 20 kHz (−3 dB, 8-pole Bessel) and stored on a computer. The extracellular recording solution was (mM) 137 NaCl, 5 KCl, 3 CaCl2, 5 HEPES, 10 glucose, 0.001 glycine, 0.0001 strychnine-HCl, titrated to pH 7.3 with NaOH; and the intracellular (pipette) solution was (mM) 140 KCl, 4 NaCl, 0.5 EGTA, 2 MgATP, 10 HEPES, titrated to pH 7.25 with KOH.
Xenon solutions were prepared by first bubbling pure gases (oxygen, nitrogen or xenon) through fine sintered-glass bubblers in 250- or 500-ml Drechsel bottles filled with extracellular recording saline. […] (To minimise oxidization, the neurotoxins and neurotransmitters were excluded from the fully oxygenated saline.) During bubbling, the solutions were continually stirred at room temperature. These solutions were then mixed to achieve the desired final concentrations of the gases. Our control solutions usually contained 80% of the nitrogen solution and 20% of the oxygen solution, while our test solutions usually contained 80% of the xenon solution and 20% of the oxygen solution. Using a Bunsen water/gas partition coefficient of 0.0965 (Smith R A et al, Biochim. Biophys. Acta 1981, 645:327-338) we calculate that our standard test solution contained 3.4 mM xenon. Xenon (research grade, 99.993% pure) was supplied by BOC gases, Guildford, Surrey, UK. In all cases xenon was pre-applied to the neurons for at least 30 seconds before the initiation of synaptic currents.
In order to obtain an estimate for the total charge transfer, the EPSCs or IPSCs were numerically integrated.

humans = conditions: cited from earlier work
[2] = tested on: co-culture injured by oxygen/glucose or oxygen deprivation; test: Oxygen/glucose or oxygen deprivation injury in co-culture (LDH release); assay type: cell-based, mouse; conditions: 75 min replacement of O2 with N2; xenon replacing N2
Experimental: Anoxia was performed on a co-culture by a 75 min replacement of O2 with N2. The xenon and N2 concentrations were changed reciprocally such that their aggregate was 95% of one atmosphere (5% CO2 in either group). After 24 h the culture medium was harvested and assayed for LDH. Data are expressed as the % mean±SD (n=3) of LDH released into the medium over the 24 h period normalised to LDH release when N2 alone is present.
Dissociated murine cortical cell cultures were prepared using whole cerebral neocortices from fetal mice (14-17 days of gestation). Cortical glial cell cultures were prepared from early postnatal mice. After halting non-neuronal cell division with cytosine arabinoside the surviving cortical neuronal cells were plated onto the glial cell background and co-cultured.

[3] = tested on: neurons of arcuate nucleus of hypothalamus; test: NMA-induced neuron injury in the arcuate nucleus (neuroprotection in vivo); set-up: species or system Sprague Dawley female adult rats; conditions: 75% Xe + NMA 100 mg/kg s.c.
Experimental: It can be seen that NMA caused neuronal degeneration and vacuoulated swelling in the neuropil giving a spongiform appearance in the arcuate nucleus (E). The degenerated neuron has a pyknotic nucleus, which look like “bulls' eyes” because of oedematous swelling of the cytoplasmic compartment.
Rats were injected with NMA (100 mg/kg) sc and sacrificed 4 hours later after exposure to air (“NMA”; n=7) or xenon 75% (“75% xenon+NMA”; n=8). (For comparison the effect of MK801, the NMDA antagonist, is also shown). The arcuate nucleus was removed and sectioned and stained with cresyl violet. Control animals (“PS”; n=6) had neither NMA nor xenon administered. Data are reflected as either the mean of three sections/animal (upper) or the sum (lower) of degenerated neurons in both arcuate nuclei.

[4] = excitatory currents + 3.4 mM xenon

For `[Xe]` [xenon], the “effect on the fast AMPA/KA receptor-mediated component” value ([1]; 3.4 mM (80%) xenon) was “barely changes; also recorded: only a small effect”, the “effect on the glutamatergic (excitatory) synaptic current” value ([1]; 3.4 mM xenon) was “strongly depressed; also recorded: greatly depressed” and the “Decay half-time % change (means ± SEM)” value [1, 4] was −22.7 ± 2.5%. The “Ifast % change (means ± SEM)” value [1, 4] was −4.1 ± 5.2%, the “Ipeak % change (means ± SEM)” value [1, 4] was −13.5 ± 1.8% and the “Islow % change (means ± SEM)” value [1, 4] was −70.3 ± 2.4%. The “Qfast % change (means ± SEM)” value [1, 4] was −11.4 ± 5.6%, the “Qslow % change (means ± SEM)” value [1, 4] was −68.2 ± 4.2% and the “Total charge transfer % change (means ± SEM)” value [1, 4] was −55.6 ± 2.7%. The “τfast % change (means ± SEM)” value [1, 4] was −12.3 ± 1.8%, the “τslow % change (means ± SEM)” value [1, 4] was −6.7 ± 6.5% and the “half maximal effective concentration EC50 as a human anaesthetic” value (humans; human) was 71 % v/v. For the same compound, the “gaseous concentration which prevents a response to a painful stimulus (MAC)” value (humans; humans) was 71 % atm, the “protection against injury induced by oxygen/glucose or oxygen alone deprivation (LDH release over 24 h)” value [2] was “dose-dependent protective effect” and the “NMA-induced neuronal injury (cresyl fast violet histology)” value [3] was “effective in reducing this injury”.
